Measurements: PubChem BioAssay (NCI)
Values joined by “and” are separate entries in the source; they are usually repeats but may differ in a detail not shown here. Equal entries are not always repeated.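 Step 1: Grow cells in 96-well plates. Step 2: Expose to compound for 48 hours at 5 concentrations. Step 3: Interpolate endpoints linearly; if unreached, use highest concentration. GI50 marks 50% less growth. TGI denotes the concentration required for complete inhibition of growth.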

Test system: MDA-MB-468 breast
Assay: NCI tumour cell line growth inhibition, 48 h

SMILES	GI50	TGI
COc1ccc(-n2nc(C)c3c(Nc4ccc(NC(=O)Nc5ccc(Cl)c(C(F)(F)F)c5)cc4)ncnc32)cc1	1880 nM	4620 nM
O=C(c1cccs1)C1NO[N+]([O-])=C1c1cccs1 (stereo not drawn)	1690 nM	3380 nM
COc1ccc(-c2cnoc2-c2cc(OC)c3c(c2)OCCO3)cc1	29.6 nM	1030 nM
Clc1nncc2sc(-c3ccccc3)nc12	14400 nM	69500 nM
Clc1ccc2c(c1)N(c1ncnc3ccc(-c4cnc5[nH]ncc5c4)cc13)CC2	217 nM	1470 nM
CCOC(=O)N1CCN(CCCCCOc2ccccc2C2CCCCC2)CC1	2410 nM	8460 nM
COc1ccc(C(=O)c2nc3ccccc3n2CC(=O)c2ccc(Cl)cc2)cc1	2080 nM	11500 nM
CCN(CC)CCOc1ccc(C(=C(C)c2ccc(OC)cc2)c2ccc(OCCN(CC)CC)cc2)cc1	830 nM	1860 nM
O=C(/C=C/c1cccc(O)c1)c1cccc(-n2cc(-c3ccc4ccccc4c3)[nH]c2=O)c1	2860 nM	12800 nM
[2H]c1nc(=Nc2cc(NC(=O)C=C)c(N(C)CCN(C)C)cc2OC)[nH]c(-c2cn(C([2H])([2H])[2H])c3ccccc23)c1[2H]	28.8 nM	957 nM
O=C1/C(=C/c2ccc([N+](=O)[O-])cc2)COc2ccc(O)cc21	2230 nM	7600 nM
CC(C)Oc1ccc(C(=O)Cn2ccnc2)cc1-n1c(CN2CCN(C(=O)COc3ccc(Cl)cc3)CC2)nc2ccccc2c1=O	9950 nM	35900 nM
CCn1c(-c2nonc2N)nc2ccncc21	> 25000 nM	> 25000 nM
c1ccc(-c2nc(N3CCCNCC3)c3nc(-c4ccccc4)oc3n2)cc1	1720 nM	3370 nM
COc1ccc(C2=C(N3CCc4ccccc43)C(=O)NC2=O)cc1	18000 nM	> 25000 nM
COc1ccc(Nc2nccc(N3CCN(c4c5ccc(Cl)cc5nc5ccc(OC)cc45)CC3)n2)cc1	2690 nM	23000 nM
COc1cccc2c(=O)c3c(sc12)c(NCCCNCCO)nc1ccccc13	1530 nM	3130 nM
COc1cccc(COc2cc(-n3cnc4ccccc43)sc2C(N)=O)c1	717 nM	6170 nM
c1cnn2ncc(-c3ccnc(Nc4ccc5c(c4)OCCO5)n3)c2c1	59.4 nM	180 nM
Fc1ccc2nc(-c3cc(-c4ccc5c(c4)OCO5)n[nH]3)[nH]c2c1	3580 nM	> 80800 nM
Cc1ccc(-n2nc(C(C)(C)C)cc2NC(=O)NCc2cc(F)ccc2Oc2ccc3c(cnn3CCO)c2)cc1	6550 nM and 3580 nM	> 65900 nM
CCCCCCCCCCCCCC[n+]1cccc(C(N)=O)c1	567 nM	2560 nM
CCNCCNc1cc(-c2ccc(C#N)cc2)c(C#N)c2nc3ccccc3n12	1790 nM	4150 nM
Nc1cc(-c2ccc(Cl)cc2)nn1-c1nnc(/C=C/c2ccco2)c(=O)[nH]1	3080 nM	22200 nM
CCOc1ccc(Nc2c3ccccc3nc3ccccc23)cc1	258 nM and 325 nM	987 nM and 2320 nM
CN(C)S(=O)(=O)c1oc(-c2ccccc2)nc1C#N	12300 nM	32900 nM
Nn1c(=O)n(-c2cccc(C(F)(F)F)c2)c(=O)c2cc(-c3ccc(F)cc3F)ccc21	1990 nM	6210 nM
O=[N+]([O-])c1ccc(-c2cc3c(Nc4ccc(Cl)c(C(F)(F)F)c4)ncnc3s2)cc1	1640 nM	6030 nM
CC(=Nc1ccc(S(N)(=O)=O)cc1)c1c(O)[nH]c2ccccc12	> 25000 nM	> 25000 nM
